{
  "source": "patent US7153822B2",
  "about": "“Compositions and methods for modulating connexin hemichannels” (Wyeth, priority 2002, dated 2006)",
  "key": {"[1]": {"system": "connexin 43 (Cx43)", "test": "immunoprecipitation and immunoblot of phosphorylated connexin 43", "type": "cell-based", "conditions": "cultured H9c2 cardiomyocytes", "procedure": "H9c2 cells were seeded in 24-multi well dishes in a density of 7,900 cells/cm^2 (˜15,000 cells/well) and grown for 3 days in MEM suplemented with 10% foetal calf serum (FCS) and 1000 units penicillin/1000 μg streptomycin (pen/strep) in an atmosphere of 5% CO2 and 100% humidity at 37° C.\nThe labelled cells were incubated in Triton X-100 lysis buffer (˜5*10^7 cells/ml) for 1 hr at 4° C. The lysate is centrifuged 30 min at 20,000*g for 30 min. The supernatant was precleared by adding 10 ul Sepharose per 200 μl supernatant. The precleared supernatant were then added 0.5–1 μg phospho-tyrosine or phospho-serine antibodies (Sigma) and incubated for 1.5 hr at 4° C. in an orbital shaker. The antibody-complex was then captured by incubation with 50 μl of a 1:1 slurry of protein G Sepharose for 1.5 hr. Finally the complex were extensively washed with 0.1% (w/v) Triton X-100, 50 mM Tris, pH 7.4, 300 mM NaCl and 5 mM EDTA.\nThe complexes were loaded onto a 12% SDS gel and blotted onto a PVDF membrane. The membrane is blocked with 0.1% Tween 20, 50 mM Tris, pH 7.4, 300 mM NaCl, 5% dry milk (TBST) for minimum 2 h. The membrane was subsequently incubated with connexin 43 specific antibodies (Zymed) for 1.5 h at RT and developed with ECL+ (Amersham)."}, "[2]": {"system": "infarcted mice", "test": "bone marrow cell transplantation after myocardial infarction (design of Orlic et al)", "type": "in vivo", "conditions": "repeated administration during the proliferation process", "description": "Myocardial infarction leads to loss of tissue and impairment of cardiac performance. The remaining myocytes are unable to reconstitute the necrotic tissue, and the post-infarcted heart deteriorates with time. Injury to a target organ is sensed by distant stem cells, which migrate to the site of damage and undergo alternate stem cell differentiation; these events promote structural and functional repair. This high degree of stem cell plasticity prompted Orlic et al (Nature 410, 701–705 (2001)) to test whether dead myocardium could be restored by transplanting bone marrow cells in infarcted mice. They sorted lineage-negative (Lin−) bone marrow cells from transgenic mice expressing enhanced green fluorescent protein by fluorescence-activated cell sorting on the basis of c-kit expression. Shortly after coronary ligation, Lin− c-kitPOS cells were injected in the contracting wall bordering the infarct. […] The developing tissue comprised proliferating myocytes and vascular structures. Their studies indicate that locally delivered bone marrow cells can generate de novo myocardium, ameliorating the outcome of coronary artery disease. […]"}},
  "data": [
    {"substance": "Ac-Gly-Asn-Tyr-NH2 [Compound 2]", "values": [
      {"measurement": "tyrosine phosphorylation of connexin 43", "setting": "[1]", "result": "phosphorylation of Cx43 tyrosine"},
      {"measurement": "connexin 43 expression", "setting": "[2]", "result": "increase in connexin 43 expression"}
    ]}
  ]
}
